Assay: xn = mol fraction of the nth substance listed
Details: 101 kPa, Liquid

CCCCCC [hexane] + CCCCCCC
mass density [kg/m3]
Details	x1 = 0.1019	x1 = 0.2003	x1 = 0.3005	x1 = 0.4007	x1 = 0.5001	x1 = 0.5984	x1 = 0.7002	x1 = 0.7995	x1 = 0.8974
273.15 K	698.37	696.77	694.27	692.25	689.57	687.14	684.81	682.14	679.66
278.15 K	694.22	692.61	690.08	688.04	685.35	682.88	680.52	677.82	675.32
283.15 K	690.04	688.42	685.86	683.8	681.08	678.58	676.2	673.47	670.94
288.15 K	685.84	684.21	681.62	679.53	676.79	674.26	671.85	669.1	666.54
293.15 K	681.62	679.97	677.36	675.24	672.47	669.91	667.47	664.69	662.1
298.15 K	677.38	675.7	673.06	670.93	668.12	665.53	663.06	660.24	657.62
303.15 K	673.11	671.42	668.74	666.58	663.74	661.12	658.62	655.77	653.12
308.15 K	668.81	667.09	664.39	662.2	659.32	656.67	654.14	651.25	648.57
313.15 K	664.47	662.74	660	657.78	654.86	652.19	649.62	646.69	643.98
318.15 K	660.11	658.36	655.58	653.33	650.35	647.66	645.06	642.1	639.34
323.15 K	655.71	653.93	651.12	648.84	645.81	643.1	640.45	637.45	634.65
328.15 K	651.27	649.47	646.62	644.31	641.22	638.48	635.8	632.76	629.92
333.15 K	646.79	644.97	642.07	639.73	636.58	633.82	631.24	628.01	625.13
338.15 K	642.28	640.43	637.49	635.11	631.89	–	626.48	623.2	620.28
343.15 K	637.71	635.84	632.85	630.44	627.14	–	621.67	–	–
348.15 K	633.1	631.2	628.16	625.71	622.33	–	616.8	–	–
353.15 K	628.43	626.5	623.42	620.92	–	–	–	–	–
358.15 K	623.71	621.75	618.61	616.08	–	–	–	–	–
363.15 K	618.94	616.94	613.75	611.16	–	–	–	–	–

CCCCC [pentane] + CCCCCC
Details	mass density [kg/m3]
273.15 K, x1 = 0.0999	674.29
273.15 K, x1 = 0.1996	671.84
273.15 K, x1 = 0.2998	668.66
273.15 K, x1 = 0.3884	666.23
273.15 K, x1 = 0.5	662.72
273.15 K, x1 = 0.6	659.97
273.15 K, x1 = 0.7001	657
273.15 K, x1 = 0.8995	650.09
273.16 K, x1 = 0.8011	653.2
278.15 K, x1 = 0.0999	669.9
278.15 K, x1 = 0.1996	667.39
278.15 K, x1 = 0.2998	664.21
278.15 K, x1 = 0.3884	661.71
278.15 K, x1 = 0.5	658.2
278.15 K, x1 = 0.6	655.38
278.15 K, x1 = 0.7001	652.36
278.15 K, x1 = 0.8011	648.53
278.15 K, x1 = 0.8995	645.39
283.14 K, x1 = 0.3884	657.16
283.14 K, x1 = 0.6	650.74
283.14 K, x1 = 0.7001	647.7
283.14 K, x1 = 0.8011	643.81
283.14 K, x1 = 0.8995	640.63
283.15 K, x1 = 0.0999	665.46
283.15 K, x1 = 0.1996	662.9
283.15 K, x1 = 0.2998	659.71
283.15 K, x1 = 0.5	653.63
288.14 K, x1 = 0.1996	658.38
288.14 K, x1 = 0.3884	652.56
288.14 K, x1 = 0.6	646.06
288.14 K, x1 = 0.7001	642.98
288.14 K, x1 = 0.8995	635.83
288.15 K, x1 = 0.0999	661
288.15 K, x1 = 0.2998	655.18
288.15 K, x1 = 0.5	649.01
288.15 K, x1 = 0.8011	639.05
293.14 K, x1 = 0.6	641.34
293.14 K, x1 = 0.7001	638.21
293.15 K, x1 = 0.0999	656.49
293.15 K, x1 = 0.1996	653.82
293.15 K, x1 = 0.2998	650.6
293.15 K, x1 = 0.3884	647.93
293.15 K, x1 = 0.5	644.36
293.15 K, x1 = 0.8011	634.24
293.15 K, x1 = 0.8995	630.97
298.14 K, x1 = 0.1996	649.22
298.14 K, x1 = 0.3884	643.25
298.14 K, x1 = 0.6	636.57
298.14 K, x1 = 0.7001	633.51
298.14 K, x1 = 0.8995	626.07
298.15 K, x1 = 0.0999	651.95
298.15 K, x1 = 0.2998	645.98
298.15 K, x1 = 0.5	639.66
298.15 K, x1 = 0.8011	629.38
303.14 K, x1 = 0.1996	644.58
303.14 K, x1 = 0.3884	638.53
303.14 K, x1 = 0.6	631.74
303.14 K, x1 = 0.7001	628.65
303.14 K, x1 = 0.8011	624.47
303.15 K, x1 = 0.0999	647.36
303.15 K, x1 = 0.2998	641.31
303.15 K, x1 = 0.5	634.91
303.15 K, x1 = 0.8995	621.11
308.14 K, x1 = 0.7001	623.75
308.15 K, x1 = 0.0999	642.74
308.15 K, x1 = 0.1996	639.9
308.15 K, x1 = 0.2998	636.59
308.15 K, x1 = 0.3884	633.76
308.15 K, x1 = 0.5	630.1
308.15 K, x1 = 0.6	626.86
308.15 K, x1 = 0.8011	619.5
308.15 K, x1 = 0.8995	616.08
313.14 K, x1 = 0.6	621.92
313.14 K, x1 = 0.8011	614.47
313.14 K, x1 = 0.8995	611
313.15 K, x1 = 0.0999	638.06
313.15 K, x1 = 0.1996	635.17
313.15 K, x1 = 0.2998	631.82
313.15 K, x1 = 0.3884	628.94
313.15 K, x1 = 0.5	625.24
313.15 K, x1 = 0.7001	618.75
318.14 K, x1 = 0.3884	624.06
318.14 K, x1 = 0.6	616.92
318.14 K, x1 = 0.7001	613.89
318.14 K, x1 = 0.8995	605.86
318.15 K, x1 = 0.0999	633.32
318.15 K, x1 = 0.1996	630.38
318.15 K, x1 = 0.5	620.41
318.15 K, x1 = 0.8011	609.38
323.14 K, x1 = 0.1996	625.55
323.14 K, x1 = 0.5	615.41
323.14 K, x1 = 0.8995	600.65
323.15 K, x1 = 0.0999	628.53
323.15 K, x1 = 0.6	611.84
328.14 K, x1 = 0.1996	620.65
328.15 K, x1 = 0.0999	623.68
328.15 K, x1 = 0.5	610.35
328.15 K, x1 = 0.6	606.69
333.15 K, x1 = 0.0999	618.77
333.15 K, x1 = 0.1996	615.6

CCCCC [pentane] + CCCCCCC
mass density [kg/m3]
Details	x1 = 0.1014	x1 = 0.2019	x1 = 0.3011	x1 = 0.4001	x1 = 0.4997	x1 = 0.5999	x1 = 0.698	x1 = 0.7991	x1 = 0.8992
273.14 K	–	691.57	–	–	–	–	–	–	–
273.15 K	696.24	–	686.91	682.43	677.18	671.16	665.42	659.05	652.37
278.15 K	692.07	687.35	682.65	678.13	672.82	666.73	660.92	654.47	647.72
283.15 K	687.87	683.1	678.35	673.78	668.42	662.25	656.37	649.85	643.01
288.15 K	683.65	678.83	674.03	669.41	663.99	657.74	651.79	645.18	638.26
293.15 K	679.4	674.53	669.67	665.01	659.51	653.19	647.17	640.48	633.46
298.15 K	675.12	670.21	665.29	660.56	655.01	648.6	642.5	635.73	628.61
303.15 K	670.82	665.85	660.88	656.08	650.46	643.97	637.79	630.93	623.7
308.15 K	666.49	661.46	656.43	651.57	645.86	639.3	633.03	626.07	–
313.15 K	662.08	657.04	651.94	647	641.22	634.58	628.22	621.16	–
318.15 K	657.69	652.58	647.42	642.39	636.53	–	623.36	616.18	–
323.15 K	653.26	648.09	642.84	637.74	631.79	–	618.43	611.14	–
328.15 K	648.78	643.55	638.23	633.03	626.99	–	–	–	–
333.15 K	644.24	–	633.57	628.26	622.13	–	–	–	–
338.15 K	639.67	–	–	623.48	617.2	–	–	–	–
343.15 K	635.01	–	–	618.87	–	–	–	–	–

— the NIST ThermoML archive (doi:10.1016/j.jct.2005.05.020)
